Melting point data for 87 compounds are collected here from a melting point compilation (Tetko et al.; mined from patent text by program, amines drawn as free bases though some values may be those of a salt).

The structures appear in SMILES notation.

The term melting point denotes the temperature of the solid-liquid transition. In turn, `Cn1c(-c2ccc(C=Cc3ccc(-c4ccccc4)cc3)cc2)cc2ccccc21` showed a melting point of 254 °C.
`CCO/C(=N/O)C1Cc2cc(C(=O)CC)c(O)c(Cl)c2O1` (configuration not stated): the melting point lay within 146 to 147 °C.
The figure for `CC(=O)Nc1ccc(C=CC(=O)C(C)CC(=O)O)cc1` (configuration not stated) is 189 to 190 °C.
`CCOC(=O)COc1ccc(C(=O)Nc2ccccc2S(=O)c2ccccc2C#N)cc1` (configuration not stated) showed a melting point of 128 to 130 °C.
The figure for `CC(C)(C)OC(=O)CN1CCSC1=NC#N` is 143 to 144 °C; for `CCCn1c(COCC)nc2c(N)nc3ccc(OCC(=O)N4CCOCC4)cc3c21` it is 196 to 197 °C.
Next, `C[C@@H](O)c1nccc(N2CCN(c3nc4cccnc4o3)CC2)n1`: 153 to 156 °C; `O=C(/C=C/C(=O)c1ccc(Cl)cc1)c1ccc(Cl)cc1`: 174 to 176 °C; `COc1cc(CCN2CCC[C@H](C(C#N)(c3ccccc3)c3ccccc3)C2)ccc1O`: 159 to 160 °C.
The figure for `Cn1c(=O)n(COc2ccc(Cl)cc2)c(=O)c2c1ncn2Cc1ccccc1` is 96 °C; for `CCCc1c(OCC(O)COc2cc(NC(=O)c3nnn[nH]3)c(C)cc2Br)ccc(C(C)=O)c1O` (configuration not stated) it is 155 to 158 °C.
Take `NS(=O)(=O)c1cnc(-c2cn(-c3nc(-c4ccc(Cl)cc4)cc(C(F)(F)F)n3)cn2)s1`: the melting point came out at 263 °C.
The figure for `N#Cc1cc(C(=O)NNC(=O)c2occ(-c3ccccc3)c2-c2ccccc2)ccc1O` is 178 to 179 °C; for `COc1cccc2c(=O)cc(-c3ccc(O)cc3)oc12` it is 281 to 283 °C.
Next, `CC(C)(C)c1cc(CCc2ccccc2NC(=O)N2CCc3ccccc3C2)cc(C(C)(C)C)c1O`: 148 to 150 °C; `OCC(O)CN1CCN(c2ncccn2)CC1` (configuration not stated): 118 to 120 °C; `CC(OC(=O)Nc1ccc(-c2ncn(-c3ccc(OC(F)(F)F)cc3)n2)cc1)C(F)(F)C(F)(F)F` (configuration not stated): 171 to 173 °C.
Next, `Cn1cncc1Cn1nnnc1-c1cccc(Cl)c1Cl`: 166 to 168 °C.
`CS(=O)(=O)Nc1ccc(N2CCN(Cc3ccc(-c4ccccc4)o3)CC2)cc1` returned a melting point of 178 °C.
Consider `Nc1ncccc1OCc1ccccc1Cl`, for which the melting point was in the range of 95 to 100 °C.
In the case of `CSC1=NC2C=C(C(=O)NCC3CC3)C(NC(=O)c3cc(C(F)(F)F)nn3-c3ncccc3Cl)=C(Cl)C2S1` (configuration not stated), the melting point was in the range of 221 to 223 °C.
The figure for `O=c1cc(-c2ccccc2)[nH]c2c(O)c(O)ccc12` is 270 to 274 °C.
Next, `COc1ccc(-n2c(=O)c(CCCO)c(O)c3cccnc32)cc1`: 229 to 231 °C; `CN1C(=S)N(c2ccc(C#N)c(C(F)(F)F)c2)C(=O)C1(CO)CO`: 169 to 170 °C.
For `COc1ccc(Oc2ccc(C(=O)N(C3CCCCC3)C3CCCC3)cc2)cc1OC`, the melting point was 154 °C.
Next, `COc1cc2c(N3CCN(C(=O)Nc4ccc(Oc5ccccc5)cc4)CC3)ncnc2cc1OCc1ccccc1`: 220 to 221 °C.
The figure for `CC12CC3(C)CC(Br)(C1)CC(Br)(C2)C3` is 115 to 116 °C.
In turn, `CS(=O)c1ccc(C2=C(c3ccccc3)C(=O)C(C)(C)O2)cc1Cl` (configuration not stated) returned a melting point of 120 to 121 °C.
The figure for `NC(=O)c1ccc(N2CCOCC2)cc1` is 220 to 221 °C.
The figure for `OC(CCc1cccnc1)CSc1ccc2ccccc2c1` (configuration not stated) is 90 to 92 °C.
Next, `CC(C)c1ccc2c(c1)c(SC(C)(C)C)c(CC(C)(C)C(=O)O)n2Cc1ccc(Cl)cc1`: 189 to 192 °C; `CCOCc1nc2c(N(Cc3ccccc3)Cc3ccccc3)nc(Cl)c(C)c2n1N`: 127 to 129 °C; `O=C(NCCCCN1CCN(c2csc3cc(F)ccc23)CC1)c1ccc(F)cc1`: 161 to 163 °C.
Compound `O=[N+]([O-])c1ccc(F)c2ccccc12` gave a melting point of 75 to 76 °C.
`C=CCOc1ccc(CC(=O)NCC(=O)O)cc1Cl` returned a melting point of 115 to 119 °C.
The figure for `O=C(O)COc1c(Br)cc(-c2c3ccccc3c(Br)c3sc4ccccc4c23)cc1Br` is 259 to 261 °C; for `C=CC(=O)N1CC(c2ccc(Cl)cc2)Sc2ccccc21` (configuration not stated) it is 122 to 124 °C; for `Nc1nc2c(s1)CC(CN1CC=C(c3ccccc3)CC1)CC2` (configuration not stated) it is 187 to 190 °C.
Next, `COc1cccc2c1CC(NC(=O)C(C)C)CC2` (configuration not stated): 167 to 168 °C; `CC(C)NC(=O)c1cnn(C)c1C(=O)Nc1ccn2nc(-c3ccccc3)nc2c1`: greater than 250 °C; `CNc1cc(CC(C)C)ccc1-c1ccccc1S(=O)(=O)Nc1onc(C)c1C`: 125 to 128 °C.
The figure for `CC(C)Nc1nc2ccccn2c(=O)c1-c1ccc(NC2CCN(C(=O)OC(C)(C)C)C2)cc1` (configuration not stated) is 210 to 212 °C; for `COC(=O)c1ccccc1OCCCn1c(C(=O)C2CCN(CCC3(c4ccccc4)CCN(C(=O)c4cc(OC)c(OC)c(OC)c4)C3)CC2)nc2ccccc21` (configuration not stated) it is 74 to 80 °C; for `NC(=O)CCCCC1CCCCC1` it is 121 to 122 °C.
Turning to `Cc1ccc2sc3cc(C(C)(C)[N+](=O)[O-])ccc3c(=O)c2c1`, the melting point was in the range of 170 to 173 °C.
Next, `CC1(C)CC(O)c2cc(Br)ccc2O1` (configuration not stated): 97 to 99 °C; `Cc1ncc(CSC(=O)c2ccccc2)c(CO)c1O`: 174 to 177 °C.
The figure for `CCOC(=O)c1cn(C2CC2)c2c(Cl)c(F)c(F)cc2c1=O` is 154 to 157 °C; for `CNc1nc(Cl)nc2c(Cl)ncnc12` it is 196 to 197 °C; for `CNC(=O)C(C)(C)CCCCC1(CCCCC(C)(C)C(=O)NC)SCCCS1` it is 104 to 106 °C.
The figure for `CCCn1c(COCC)nc2c(N)nc3ccc(OCCCCCCNC(=O)C(C)C)cc3c21` is 136 to 138 °C; for `COc1ccc(C(=O)Nc2nc3ccc(N(C)C)cc3c(NCc3ccco3)c2C#N)cc1` it is 195 °C; for `BrCCCCCCOc1ccc(C2=NCCO2)cc1` it is 79 to 81 °C.
Turning to `O=[N+]([O-])c1cnn2c1-c1ccccc1NC2c1ccc(Cl)cc1` (configuration not stated), the melting point was 217 to 219 °C.
The figure for `COc1cc(OCCCCl)ccc1C(C)=O` is 47 to 49 °C.
Next, `C=CCN(CC=C)c1nc(NC(=O)OCC(C)C)n2oc(=O)nc2n1`: 161 to 163 °C.
The figure for `COc1cc(N)c(Cl)cc1C(=O)N[C@H]1CCN(Cc2cnccn2)C[C@H]1OC` (relative stereo) is 204 °C; for `CC(C)(C)OC(=O)N[C@H]1CC[C@H](CCN2CCCN(c3cccc(Cl)c3Cl)CC2)CC1` it is 95 to 98 °C; for `COc1cc(C(=O)c2ncc3ccc(NC(C)=O)cn23)ccc1[N+](=O)[O-]` it is 257 °C.
For `NS(=O)(=O)c1ccc(-c2cnn(Cc3ccccc3)c(=O)c2-c2ccc(F)cc2)cc1`, the melting point lay in the range of 185 to 189 °C.
`CCc1nn(CCO)c(CC)c1Oc1cc(C#N)cc(C#N)c1` displayed a melting point of 125 °C.
Next, `COc1cc2c(cc1OC)N(C(=O)C=Cc1ccccc1)CC(N(C)C)C2` (configuration not stated): 97 to 98 °C; `O=C(O)CCC(Cc1ccc(Cl)cc1Cl)(C(=O)C=Cc1ccc(Cl)cc1)c1ccccc1` (configuration not stated): 215 to 226 °C.
The compound `COC(=O)Cc1ccc(OCc2ccc(-c3ccccc3)cc2)cc1` registered a melting point of 115 to 116 °C.
Next, `O=C(O)CC(c1ccccc1)C(F)(F)F` (configuration not stated): 72 °C; `CC(=O)OC1CSC(Oc2cnc(-c3ccncc3)c(F)c2)C(OC(C)=O)C1OC(C)=O` (configuration not stated): 165 °C; `CCOc1ccn2c(C)c(CCc3ccc4nc(N)oc4c3)nc2c1`: 207 to 208 °C.
Regarding `CCOC(=O)c1cnc2sc3c(n12)CCCCCC3`, the melting point fell in the range of 79 to 81 °C.
The figure for `Cc1nnc(-c2ccc3occ(-c4cnn(Cc5ccccc5F)c4)c3c2)o1` is 142 to 143 °C; for `FC(F)(F)c1cccc(OC(c2ccc(Cl)cc2)c2nnn[nH]2)c1` (configuration not stated) it is 124 to 126 °C.
The figure for `Nc1nc2ccccc2c2c1ncn2CCOCC#Cc1ccccc1` is 196 to 197 °C.
The figure for `COc1cc(Nc2ncc(-c3cccc([N+](=O)[O-])c3)o2)ccc1-c1cnco1` is 279 to 281 °C; for `CCCc1c(OCCCCCCc2ccc(O)c(O)c2Cl)ccc(C(=O)O)c1O` it is 145 to 146 °C.
On to `CCCCCCCCn1c(=O)c2c(N3CCN(C)CC3)cc(Cl)cc2n(Cc2ccccc2)c1=O`, for which the melting point was in the range of 78 to 80 °C.
Next, `CCCC=Cn1c2ccccc2c2ccccc21`: 47 °C; `C=CCn1cc(C(O)(c2ccc3c(cnn3C(=O)NCC)c2)C(F)(F)F)c2ccccc21` (configuration not stated): 162 to 164 °C.
The compound `CCCCC(C(=O)OC)(C(=O)OC)c1nc(C)nc2c1c(SC)nn2-c1c(Cl)cc(Cl)cc1Cl` yielded a melting point of 146 to 152 °C.
The figure for `N#Cc1cc(C2=Nc3ccc(C4CC4)cc3NC(=O)C2)ccn1` is 227 to 230 °C.
In the case of `O=C1c2c(Br)ccc(Br)c2C(=O)N1CC(F)(F)C(F)(F)C(F)(F)F`, the melting point was determined as 165 °C.
The figure for `O=C1CCN(Cc2ccccc2)CC1C1c2ccccc2Oc2ccccc21` (configuration not stated) is 124 to 125 °C; for `N=C1SCCN1c1ccc(N)cc1[N+](=O)[O-]` it is 138 to 139 °C.
The figure for `CCC(C)(Oc1ccc(F)cc1F)C(=O)Nc1nc(CC(=O)O)cs1` (configuration not stated) is 148 to 149 °C.
Next, `C[C@@H](NC(=O)c1ccc[nH]1)C(=O)N[C@H]1CC(=O)O[C@@H]1OCc1ccccc1`: 109 to 112 °C; `CC(O)c1nccc(N2CCc3cc(-c4ccsc4)ccc3C2)n1` (configuration not stated): 126 to 128 °C.
Turning to `Cc1ccc(-c2cnc(-c3cc(C(F)(F)F)cc(C(F)(F)F)c3)s2)s1`, the melting point was 120 to 121 °C.
Next, `CC(=O)N1CCc2c(c3ccc(-n4ccc(-c5ccc(C(F)(F)F)nc5)cc4=O)nc3n2C)C1`: 238 to 242 °C; `CN1CC(c2ccc(Cl)cc2)C(=O)C(c2cccc(Cl)c2)C1` (configuration not stated): 126 °C.
